Structures are written as SMILES. The source made the active and inactive calls. Some results are limits rather than exact numbers.

Test [1] deals with 5-hydroxytryptamine receptor 1E (Homo sapiens, UniProt P28566). As to the kind of experiment: Counterscreen assay for S1P3 antagonists: Dose response cell-based high throughput screening assay to identify antagonists of the 5-Hydroxytryptamine Receptor Subtype 1E (5HT1E). [Related pubchem assays: 1429, 485 ]. In kind it is functional.
The target of test [2] is Sphingosine 1-phosphate receptor 3 (Homo sapiens, UniProt Q99500). As to the kind of experiment: Dose response cell-based high throughput screening assay for antagonists of the Sphingosine 1-Phosphate Receptor 3 (S1P3). [Related pubchem assays: 1429, 485 ]. In kind it is functional.
For test [3], the target named is T1, Neuropeptide Y receptor type 2 (Homo sapiens, UniProt P49146).
T1 sequence (P49146 whole entry): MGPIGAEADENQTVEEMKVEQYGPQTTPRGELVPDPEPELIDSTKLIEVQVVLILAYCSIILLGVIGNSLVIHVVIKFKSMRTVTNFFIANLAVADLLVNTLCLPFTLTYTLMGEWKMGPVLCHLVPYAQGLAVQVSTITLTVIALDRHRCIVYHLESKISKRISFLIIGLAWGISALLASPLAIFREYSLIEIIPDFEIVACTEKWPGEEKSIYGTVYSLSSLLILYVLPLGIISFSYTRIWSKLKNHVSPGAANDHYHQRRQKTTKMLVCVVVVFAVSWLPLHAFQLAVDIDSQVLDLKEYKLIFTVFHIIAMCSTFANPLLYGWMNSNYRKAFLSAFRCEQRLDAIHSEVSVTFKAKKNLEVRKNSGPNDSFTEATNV
The test can be described thus: IC50 for human NPY-Y2 blockade – cell-based, counter-screen for NPY-Y1 antagonist project, dose response (AID 1278). It is filed as functional.

For test [4], the target named is T2, Neuropeptide Y receptor type 1 (Homo sapiens, UniProt P25929).
T2 sequence (P25929 whole entry): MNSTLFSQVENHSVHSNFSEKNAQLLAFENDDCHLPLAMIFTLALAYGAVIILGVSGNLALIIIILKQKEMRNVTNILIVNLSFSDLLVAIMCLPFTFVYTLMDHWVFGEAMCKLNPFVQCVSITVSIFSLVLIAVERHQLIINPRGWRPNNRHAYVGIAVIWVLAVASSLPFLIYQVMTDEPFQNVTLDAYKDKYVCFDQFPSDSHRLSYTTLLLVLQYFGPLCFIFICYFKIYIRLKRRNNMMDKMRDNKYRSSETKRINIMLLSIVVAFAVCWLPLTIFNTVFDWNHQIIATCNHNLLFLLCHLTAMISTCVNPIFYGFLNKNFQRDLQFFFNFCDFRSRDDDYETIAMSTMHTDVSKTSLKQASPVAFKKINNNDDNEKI
As to the kind of experiment: IC50 of human NPY-Y1 blockers – cell-based, dose response (AID 1277). In kind it is functional.

In test [5] the target is Peroxisome proliferator-activated receptor gamma/Nuclear receptor coactivator 1 (Homo sapiens, UniProt P37231). The test can be described thus: TR-FRET dose response biochemical High Throughput Screening assay for agonists of the steroid receptor coactivator 1 (SRC-1) recruitment by the peroxisome proliferator-activated receptor gamma (PPAR gamma): non-selective agonists. [Related pubchem assays (depositor defined):AID1300, AID1808, AID504735, AID631]. It is filed as protein assay. (In TR-FRET formats the signal depends on donor and acceptor labels being close together.)

Test [6] has as its target Peroxisome proliferator-activated receptor gamma/Nuclear receptor coactivator 3 (Homo sapiens, UniProt P37231). As to the kind of experiment: TR-FRET dose response biochemical High Throughput Screening assay for agonists of the steroid receptor coactivator 3 (SRC-3) recruitment by the peroxisome proliferator-activated receptor gamma (PPAR gamma): non-selective agonists. [Related pubchem assays: 1301 (Confirmation screen.), 1048 (Primary screen.)]. In kind it is functional.

Test [7] concerns the target Peroxisome proliferator-activated receptor gamma/Nuclear receptor corepressor 2 (Homo sapiens, UniProt P37231+Q9Y618). The test can be described thus: Counterscreen for NR2E3 inverse agonists: TR-FRET-based biochemical high throughput dose response assay to identify inverse agonists of the interaction between peroxisome proliferator-activated receptor gamma (PPARg) and nuclear receptor co-repressor 2 (NCOR2). It is filed as functional.

Test [8] deals with Photoreceptor-specific nuclear receptor (Homo sapiens, UniProt Q9Y5X4). As to the kind of experiment: ligands suppressing NR2E3 nuclear receptor activity – biochemical, TR-FRET, dose response (AID 463256). In kind it is functional.
Test [9] deals with Peroxisome proliferator-activated receptor gamma/Nuclear receptor coactivator 2 (Homo sapiens, UniProt P37231). As to the kind of experiment: TR-FRET dose response biochemical High Throughput Screening assay for agonists of the steroid receptor coactivator 2 (SRC-2) recruitment by the peroxisome proliferator-activated receptor gamma (PPAR gamma): non-selective agonists. [Related pubchem assays: 1297, 1032 ]. It is filed as functional.
Sequence of Peroxisome proliferator-activated receptor gamma/Nuclear receptor coactivator 2 (P37231 whole entry): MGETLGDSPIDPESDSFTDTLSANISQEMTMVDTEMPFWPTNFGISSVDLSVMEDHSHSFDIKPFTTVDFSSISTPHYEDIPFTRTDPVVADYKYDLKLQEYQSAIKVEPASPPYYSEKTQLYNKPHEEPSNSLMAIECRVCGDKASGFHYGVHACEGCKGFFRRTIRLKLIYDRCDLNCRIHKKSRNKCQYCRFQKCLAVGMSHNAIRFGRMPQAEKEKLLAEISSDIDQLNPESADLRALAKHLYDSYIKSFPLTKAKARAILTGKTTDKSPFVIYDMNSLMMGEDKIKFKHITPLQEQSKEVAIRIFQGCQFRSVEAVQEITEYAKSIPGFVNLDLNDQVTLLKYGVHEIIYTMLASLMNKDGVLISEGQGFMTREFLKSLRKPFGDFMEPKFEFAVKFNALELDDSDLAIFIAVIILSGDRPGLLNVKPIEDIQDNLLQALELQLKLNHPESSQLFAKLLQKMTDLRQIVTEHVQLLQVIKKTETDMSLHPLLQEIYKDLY
Sequence of Peroxisome proliferator-activated receptor gamma/Nuclear receptor coactivator 2 (Q15596 whole entry, further chain): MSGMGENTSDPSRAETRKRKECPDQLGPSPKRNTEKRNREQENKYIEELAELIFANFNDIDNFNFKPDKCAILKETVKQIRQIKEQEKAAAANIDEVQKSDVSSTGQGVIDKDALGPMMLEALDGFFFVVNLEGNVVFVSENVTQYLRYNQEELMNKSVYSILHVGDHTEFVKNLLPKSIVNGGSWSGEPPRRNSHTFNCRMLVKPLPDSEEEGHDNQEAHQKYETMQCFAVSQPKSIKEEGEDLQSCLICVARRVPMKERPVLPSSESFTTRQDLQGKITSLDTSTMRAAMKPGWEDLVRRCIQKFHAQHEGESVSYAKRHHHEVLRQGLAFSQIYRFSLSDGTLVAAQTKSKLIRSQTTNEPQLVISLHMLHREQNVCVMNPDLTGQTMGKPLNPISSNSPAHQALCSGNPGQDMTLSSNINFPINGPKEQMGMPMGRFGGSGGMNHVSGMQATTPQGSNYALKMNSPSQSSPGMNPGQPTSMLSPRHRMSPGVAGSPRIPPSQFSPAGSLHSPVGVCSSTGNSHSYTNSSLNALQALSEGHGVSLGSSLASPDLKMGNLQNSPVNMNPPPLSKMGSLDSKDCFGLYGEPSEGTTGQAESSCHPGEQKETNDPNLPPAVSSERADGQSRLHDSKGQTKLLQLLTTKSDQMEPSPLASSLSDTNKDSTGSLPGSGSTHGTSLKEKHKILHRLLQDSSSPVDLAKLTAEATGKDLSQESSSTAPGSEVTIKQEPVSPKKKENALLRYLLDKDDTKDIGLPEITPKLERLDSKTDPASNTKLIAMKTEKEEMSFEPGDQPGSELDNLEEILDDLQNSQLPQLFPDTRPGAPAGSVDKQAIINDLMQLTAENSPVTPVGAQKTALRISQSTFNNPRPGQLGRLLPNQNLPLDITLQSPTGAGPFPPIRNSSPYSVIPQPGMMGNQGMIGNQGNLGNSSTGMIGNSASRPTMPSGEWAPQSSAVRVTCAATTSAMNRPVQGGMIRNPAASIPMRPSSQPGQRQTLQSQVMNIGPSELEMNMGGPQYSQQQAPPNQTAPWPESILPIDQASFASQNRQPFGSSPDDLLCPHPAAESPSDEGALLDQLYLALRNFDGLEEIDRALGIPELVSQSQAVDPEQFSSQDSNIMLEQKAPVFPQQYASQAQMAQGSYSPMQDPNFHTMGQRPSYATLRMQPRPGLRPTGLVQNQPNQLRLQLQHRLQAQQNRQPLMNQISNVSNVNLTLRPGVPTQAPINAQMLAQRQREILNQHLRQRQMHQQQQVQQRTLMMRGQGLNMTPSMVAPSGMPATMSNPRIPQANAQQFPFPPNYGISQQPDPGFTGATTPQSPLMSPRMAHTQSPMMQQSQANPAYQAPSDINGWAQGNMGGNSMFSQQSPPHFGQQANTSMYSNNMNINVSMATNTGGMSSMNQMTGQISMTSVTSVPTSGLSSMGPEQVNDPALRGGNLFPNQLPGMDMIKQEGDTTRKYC

The target in test [10] is Voltage-gated inwardly rectifying potassium channel KCNH2 (Homo sapiens, UniProt Q12809). The test can be described thus: concentration-dependent hERG rescue from blockers – cell-based, thallium flux, dose response (AID 2121). In kind it is ADME.
Another test has as its target Estrogen receptor (Homo sapiens, UniProt P03372).
The next test deals with Estrogen receptor beta (Homo sapiens, UniProt Q92731).
Test [11] is described as follows: M. tuberculosis H37Rv growth inhibitors, H37Rv strain (AID 1626). In kind it is functional.
In test [12] the target is Solute carrier family 12 member 2/member 5 (Homo sapiens, UniProt P55011+Q9H2X9). The test can be described thus: KCC2 and NKCC1 inhibition by rubidium flux, cell-based, NKCC1 counter-screen (AID 1734). In kind it is functional, HEK293.
The target in test [13] is Glyceraldehyde-3-phosphate dehydrogenase (Homo sapiens, UniProt P04406).
Test [14] concerns the target T3, Bcl-2-related protein A1 (Mus musculus, UniProt Q07440).
T3 sequence (Q07440 whole entry): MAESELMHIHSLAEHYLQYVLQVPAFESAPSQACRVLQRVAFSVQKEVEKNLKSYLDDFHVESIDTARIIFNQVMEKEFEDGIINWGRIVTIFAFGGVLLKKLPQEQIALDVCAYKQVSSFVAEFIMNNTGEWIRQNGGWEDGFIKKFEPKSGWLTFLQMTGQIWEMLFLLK
As to the kind of experiment: small-molecule antagonists of Bfl-1/BH3 interaction – biochemical, TR-FRET, mouse Bfl-1, confirmation (AID 621).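 Further: TR-FRET binding of GST-Bfl-1 to FITC-labelled Bid peptide via terbium antibody.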

Test [15] deals with T3, Bcl-2-related protein A1. As to the kind of experiment: Bfl-1 binding inhibitors, SAR follow-up, biochemical, fluorescence polarization (AID 1070). (Fluorescence polarisation rises when a labelled molecule tumbles more slowly, as on binding a larger partner.)
The next test deals with T4, NADPH oxidase 1 (Homo sapiens, UniProt Q9Y5S8).
T4 sequence (Q9Y5S8 whole entry): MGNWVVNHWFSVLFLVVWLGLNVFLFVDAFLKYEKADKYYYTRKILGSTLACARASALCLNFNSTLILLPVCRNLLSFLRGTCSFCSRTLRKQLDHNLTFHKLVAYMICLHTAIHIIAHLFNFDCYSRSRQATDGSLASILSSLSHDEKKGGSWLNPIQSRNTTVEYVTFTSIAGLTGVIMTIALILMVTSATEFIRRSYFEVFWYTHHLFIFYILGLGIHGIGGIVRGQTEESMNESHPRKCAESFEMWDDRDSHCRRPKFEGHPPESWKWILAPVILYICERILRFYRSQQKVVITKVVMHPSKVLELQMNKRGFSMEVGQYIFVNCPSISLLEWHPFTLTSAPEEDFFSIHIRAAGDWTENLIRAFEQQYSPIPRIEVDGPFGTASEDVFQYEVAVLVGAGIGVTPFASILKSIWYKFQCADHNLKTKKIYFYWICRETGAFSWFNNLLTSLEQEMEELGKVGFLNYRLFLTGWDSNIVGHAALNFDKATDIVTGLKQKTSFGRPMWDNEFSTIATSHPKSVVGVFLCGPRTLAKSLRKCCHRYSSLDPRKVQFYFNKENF
The test can be described thus: Late-stage luminescence-based cell-based dose response assay to identify inhibitors of NADPH oxidase 1 (NOX1): Purchased analogs 2. In kind it is functional.

Test [16] can be described thus: A High Throughput Confirmatory Assay used to Identify Novel Compounds that Inhibit Mycobacterium Tuberculosis in the absence of Glycerol. It is filed as functional.
Test [17] is described as follows: Trypanosoma cruzi growth suppression in host cells – NIH3T3 host cells, beta-gal luminescence, confirmation (AID 2044).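 Further: intracellular parasites grown in NIH/3T3 mouse fibroblasts as host cells; luminescent beta-galactosidase reporter signal from transgenic T. cruzi replicating inside host cells; inhibitors lower the luminescence signal.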 In kind it is functional, cell-based.
The nature of test [18]: NIH3T3 cell viability loss – ATP luminescence, mouse fibroblasts, counter-screen, dose response (AID 2010).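 Further: cells exposed to compound for about 90 hours before reading.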 In kind it is functional, cell-based. On the technique in general: Counterscreens check selectivity or assay interference.
Test [19] addresses T5, Mannose-6-phosphate isomerase (Homo sapiens, UniProt P34949).
T5 sequence (P34949 whole entry): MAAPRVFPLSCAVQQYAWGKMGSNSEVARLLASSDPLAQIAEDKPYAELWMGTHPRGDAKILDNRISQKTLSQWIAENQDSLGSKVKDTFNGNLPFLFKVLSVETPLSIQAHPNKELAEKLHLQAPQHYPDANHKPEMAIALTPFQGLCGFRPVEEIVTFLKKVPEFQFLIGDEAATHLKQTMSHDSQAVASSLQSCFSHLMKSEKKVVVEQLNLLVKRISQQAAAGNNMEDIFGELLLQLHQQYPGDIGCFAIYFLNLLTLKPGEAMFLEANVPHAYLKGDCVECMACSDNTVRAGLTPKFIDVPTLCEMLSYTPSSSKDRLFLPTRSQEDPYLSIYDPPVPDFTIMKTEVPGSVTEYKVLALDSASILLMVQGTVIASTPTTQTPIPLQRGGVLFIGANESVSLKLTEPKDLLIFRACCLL
As to the kind of experiment: MPI inhibition at elevated mannose 6-phosphate – biochemical, fluorescence intensity, high mannose 6-phosphate, primary screen (AID 1220).

The next test concerns the target Trypsin (Sus scrofa, UniProt P00761). The test can be described thus: trypsin protease activity blockade – biochemical, quenched peptide fluorescence, cherry-pick, selectivity assay for Rce1 protease inhibitor project, dose response (AID 488789).
The target in the next test is T6, CAAX prenyl protease 2 (Homo sapiens, UniProt Q9Y256).
T6 sequence (Q9Y256 whole entry): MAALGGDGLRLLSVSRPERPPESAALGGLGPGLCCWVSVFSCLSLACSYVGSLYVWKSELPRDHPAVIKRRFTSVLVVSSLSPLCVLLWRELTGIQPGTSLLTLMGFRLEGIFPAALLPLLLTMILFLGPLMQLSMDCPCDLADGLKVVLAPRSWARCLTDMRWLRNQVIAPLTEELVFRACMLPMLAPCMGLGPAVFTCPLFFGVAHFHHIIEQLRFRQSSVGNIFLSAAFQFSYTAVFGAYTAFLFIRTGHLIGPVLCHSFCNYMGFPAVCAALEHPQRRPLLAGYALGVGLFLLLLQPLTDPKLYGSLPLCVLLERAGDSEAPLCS
The test can be described thus: inhibition of Ras-converting CAAX protease Rce1 – biochemical, yeast membranes, quenched-peptide fluorescence, cherry-pick, dose response (AID 588849).

A short description of test [20]: antiviral protection against BTV-induced cell death – arbovirus, BSR cells, confirmation (AID 1250).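 Further: protection from viral cytopathic effect measured as cell viability by ATP luminescence.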 It is filed as functional.
Test [21] addresses Induced myeloid leukemia cell differentiation protein Mcl-1 (Homo sapiens, UniProt Q07820). It is filed as functional.

Sequence of Peroxisome proliferator-activated receptor gamma/Nuclear receptor corepressor 2 (P37231 whole entry): as the sequence (P37231 whole entry) above
Sequence of Peroxisome proliferator-activated receptor gamma/Nuclear receptor corepressor 2 (Q9Y618 whole entry): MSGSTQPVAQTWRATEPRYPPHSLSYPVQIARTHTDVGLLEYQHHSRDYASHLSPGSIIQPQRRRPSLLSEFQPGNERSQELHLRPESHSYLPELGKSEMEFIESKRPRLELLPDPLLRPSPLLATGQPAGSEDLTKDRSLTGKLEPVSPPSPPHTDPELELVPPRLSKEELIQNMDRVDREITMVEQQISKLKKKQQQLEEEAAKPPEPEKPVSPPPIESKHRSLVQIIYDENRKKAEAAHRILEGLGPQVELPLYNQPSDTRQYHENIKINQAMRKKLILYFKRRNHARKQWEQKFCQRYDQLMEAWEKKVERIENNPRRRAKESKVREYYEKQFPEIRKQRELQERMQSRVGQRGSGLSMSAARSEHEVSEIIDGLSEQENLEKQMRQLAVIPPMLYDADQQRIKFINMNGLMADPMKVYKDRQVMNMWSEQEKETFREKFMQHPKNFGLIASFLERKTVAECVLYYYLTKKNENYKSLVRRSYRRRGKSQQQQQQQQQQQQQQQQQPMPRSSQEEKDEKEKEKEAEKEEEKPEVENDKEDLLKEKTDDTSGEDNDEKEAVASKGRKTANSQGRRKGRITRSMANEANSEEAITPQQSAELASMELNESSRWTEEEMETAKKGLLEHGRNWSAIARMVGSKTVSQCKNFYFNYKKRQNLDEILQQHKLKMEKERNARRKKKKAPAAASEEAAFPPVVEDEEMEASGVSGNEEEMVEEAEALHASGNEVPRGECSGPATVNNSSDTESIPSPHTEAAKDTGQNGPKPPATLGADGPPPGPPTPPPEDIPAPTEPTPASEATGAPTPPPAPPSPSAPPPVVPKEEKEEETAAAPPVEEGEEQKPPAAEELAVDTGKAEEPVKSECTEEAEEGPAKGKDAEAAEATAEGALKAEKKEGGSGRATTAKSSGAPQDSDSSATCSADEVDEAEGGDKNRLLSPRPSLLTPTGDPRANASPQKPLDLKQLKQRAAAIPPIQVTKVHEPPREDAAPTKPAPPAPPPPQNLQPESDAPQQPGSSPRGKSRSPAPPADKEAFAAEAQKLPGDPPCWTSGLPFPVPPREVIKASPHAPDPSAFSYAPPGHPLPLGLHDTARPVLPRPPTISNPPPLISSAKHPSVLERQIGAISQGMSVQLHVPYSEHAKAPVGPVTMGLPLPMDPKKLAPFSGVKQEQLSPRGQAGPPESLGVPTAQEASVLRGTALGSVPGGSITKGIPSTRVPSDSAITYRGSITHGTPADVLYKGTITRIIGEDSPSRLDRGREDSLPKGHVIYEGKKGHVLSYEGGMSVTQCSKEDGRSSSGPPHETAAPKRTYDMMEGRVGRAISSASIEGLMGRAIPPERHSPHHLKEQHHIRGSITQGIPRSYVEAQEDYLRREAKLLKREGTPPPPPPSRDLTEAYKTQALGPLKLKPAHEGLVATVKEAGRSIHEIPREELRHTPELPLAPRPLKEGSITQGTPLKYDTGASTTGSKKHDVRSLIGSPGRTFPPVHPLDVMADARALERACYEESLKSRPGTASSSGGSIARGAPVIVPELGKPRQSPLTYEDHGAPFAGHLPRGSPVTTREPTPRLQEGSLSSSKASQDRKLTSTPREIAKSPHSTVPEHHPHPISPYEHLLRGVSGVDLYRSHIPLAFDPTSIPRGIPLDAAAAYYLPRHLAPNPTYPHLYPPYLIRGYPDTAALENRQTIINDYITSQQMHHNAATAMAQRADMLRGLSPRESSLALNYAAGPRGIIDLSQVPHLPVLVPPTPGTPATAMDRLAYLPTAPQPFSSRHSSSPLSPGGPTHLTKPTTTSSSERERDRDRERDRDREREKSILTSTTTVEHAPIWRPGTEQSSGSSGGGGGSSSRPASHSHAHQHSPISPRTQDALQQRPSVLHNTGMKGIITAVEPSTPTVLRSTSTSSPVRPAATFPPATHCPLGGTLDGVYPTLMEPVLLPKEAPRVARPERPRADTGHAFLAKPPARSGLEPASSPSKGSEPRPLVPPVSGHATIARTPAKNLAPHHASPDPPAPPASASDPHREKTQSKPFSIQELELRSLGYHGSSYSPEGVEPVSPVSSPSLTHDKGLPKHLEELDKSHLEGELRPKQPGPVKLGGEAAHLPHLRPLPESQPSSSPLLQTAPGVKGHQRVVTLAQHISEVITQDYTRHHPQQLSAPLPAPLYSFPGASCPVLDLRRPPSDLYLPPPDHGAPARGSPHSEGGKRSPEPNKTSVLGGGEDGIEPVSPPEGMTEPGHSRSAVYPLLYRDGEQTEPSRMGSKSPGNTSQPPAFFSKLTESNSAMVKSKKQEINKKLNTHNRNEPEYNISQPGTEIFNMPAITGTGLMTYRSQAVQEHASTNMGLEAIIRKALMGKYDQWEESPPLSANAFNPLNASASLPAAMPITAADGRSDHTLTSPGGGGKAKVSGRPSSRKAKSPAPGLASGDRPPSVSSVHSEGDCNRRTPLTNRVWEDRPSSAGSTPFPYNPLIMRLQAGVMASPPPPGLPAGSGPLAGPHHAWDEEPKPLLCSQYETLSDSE

For `Cc1ccc(NC(=O)C(OC(=O)c2ccccc2Cl)c2ccccc2)cc1Cl` (stereo unspecified), the IC50 is 5.28 µM (active) in test [1] and 9.24 µM (active) in test [2].

Regarding `CC1=CC(C)(C)N(C(=O)CNC2CCCCC2)c2cc(C)ccc21`, the IC50 is 12.3 µM (not active) in test [3] and 6.84 µM (active) in test [4].

Regarding `O=C(COc1ccc2ccccc2c1)NCCNC(=O)COc1ccc2ccccc2c1`, the figures for the EC50 in [5], in test [6] and in [9] were 8.38 µM (active), 47.8 µM (not active) and 8.67 µM (active), respectively. The concentration for half-maximal inhibition (IC50) in test [7] was 5.82 µM (active); in [8], 4.75 µM (active).

For `CCOc1ccccc1NC(=O)C(=O)CC(=O)c1ccc(OC)cc1`, the EC50 in test [10] is 3.01 µM (active).

Regarding `CCOC(=O)C1=C(O)/C(=C\c2ccc(CNC(=O)C(=O)Nc3ccc(C)c(C)c3)o2)N=C1C`, the results for the IC50 against Estrogen receptor and at Estrogen receptor beta were 40.5 µM (not active) and > 50 µM (not active), respectively.

Turning to `O=C(OCC(=O)N1CCN(C(=O)c2ccco2)CC1)c1sc2ccccc2c1Cl`, the IC50 in test [11] is > 100 µM (active); in test [12], 24 µM (active).

For the molecule `O=C1C(Cl)=C(N2CCOCC2)C(=O)N1c1c(Cl)cccc1Cl`, the figures for the 50% inhibitory concentration (IC50) (in [13]; against Bcl-2-related protein A1 [14]; on Bcl-2-related protein A1 [15]) were > 10 µM (inconclusive), > 100 µM (not active) and > 100 µM (not active), respectively.

As to `C=C(NNc1c(F)c(F)nc(F)c1F)c1ccc(OC)cc1`, on NADPH oxidase 1, the IC50 is on record as > 17 µM (not active).

Take `CCCCNc1nc(N(C)c2ccccc2)nc(-n2ccnc2)n1`: in test [16], the half-inhibitory concentration (IC50) is > 100 µM (active). For the same molecule, the concentration giving a half-maximal response (EC50) is 0.55 µM (active) in test [17] and > 30 µM (not active) in test [18].

Regarding `COc1cc2c(C#N)c(N3CCCCC3)nc(N)c2c(N)n1`, in test [19], the IC50 is > 50 µM (not active). In addition, the AC50 was 13.6 µM (active) at Trypsin and 20 µM (active) at CAAX prenyl protease 2.

In the case of `CN1CCN(S(=O)(=O)c2ccc(NC(=S)NC(=O)c3ccc(Cl)cc3)cc2)CC1`, the values for the half-maximal inhibitory concentration (IC50) in [20] and in [21] were > 100 µM (active) and 4.19 µM (active), respectively.

For orientation: IC50 means the concentration that gives 50% inhibition. Broadly, the EC50 is the concentration giving half of the maximal effect. Broadly, the AC50 is the concentration giving half of the maximal activity seen.

Values taken from ChEMBL document CHEMBL1201862, “PubChem BioAssay data set” (2004).
